Assay results from ChEMBL document CHEMBL1151439, “Bactericidal action of daptomycin against stationary-phase and nondividing Staphylococcus aureus cells” (2007).
Values after ≈ are worked out from the molar mass of the structure shown. Active and inactive are the calls of the source. No cut-off for these calls is given here.

Columns and labels:
Staphylococcus aureus [1] = assay: Bactericidal activity against high inoculum density stationary phase culture of methicillin-sensitive Staphylococcus aureus ATCC 29213 grown for >17 hrs in MHBc at 100 ug/mL after 24 hrs by time kill study; assay type: functional, organism-based
Staphylococcus aureus [2] = assay: Antibacterial activity against exponential growth culture of methicillin-sensitive Staphylococcus aureus ATCC 29213 grown for 2 hrs in MHBc by broth microdilution method; assay type: functional
Staphylococcus aureus [3] = assay: Bactericidal activity against high inoculum density stationary phase culture of methicillin-sensitive Staphylococcus aureus ATCC 29213 grown for >17 hrs in MHBc assessed as log reduction in CFU per millimiter at 100 ug/mL after 8 hrs by time kill study; assay type: functional
Staphylococcus aureus [4] = assay: Bactericidal activity against high inoculum density stationary phase culture of methicillin-sensitive Staphylococcus aureus ATCC 29213 grown for >17 hrs in MHBc at 10 ug/mL after 24 hrs by time kill study; assay type: functional, organism-based
Staphylococcus aureus [5] = assay: Bactericidal activity against 1 hr cold-arrested exponential growth culture of methicillin-sensitive Staphylococcus aureus ATCC 29213 grown for 2 hrs in MHBc at 2 ug/mL incubated at 0 degC by time kill study; assay type: functional, organism-based
Staphylococcus aureus [6] = assay: Bactericidal activity against high inoculum density stationary phase culture of methicillin-sensitive Staphylococcus aureus ATCC 29213 grown for >17 hrs in MHBc at 100 ug/mL after prolonged treatment period by time kill study; assay type: functional, organism-based
Staphylococcus aureus [7] = assay: Bactericidal activity against high inoculum density stationary phase culture of methicillin-sensitive Staphylococcus aureus ATCC 29213 grown for >17 hrs in MHBc by time kill study; assay type: functional, organism-based
Staphylococcus aureus [8] = assay: Bactericidal activity against CCCP-induced metabolically arrested exponential growth culture of methicillin-sensitive Staphylococcus aureus ATCC 29213 grown for 2 hrs in MHBc at 10 ug/mL after 24 hrs by time kill study; assay type: functional, organism-based
Staphylococcus aureus [9] = assay: Bactericidal activity against stationary phase culture of methicillin-sensitive Staphylococcus aureus ATCC 29213 grown for >17 hrs in MHBc followed by dilution in nutrient depleted MHBc assessed as logarithmic reduction in CFU per millimiter at 100 ug/mL after 24 hrs by time kill study; assay type: functional, organism-based
Staphylococcus aureus [10] = assay: Bactericidal activity against 24 hrs cold-arrested exponential growth culture of methicillin-sensitive Staphylococcus aureus ATCC 29213 grown for 2 hrs in MHBc at 2 ug/mL incubated at 37 degC after 2 hrs by time kill study; assay type: functional, organism-based
Staphylococcus aureus [11] = assay: Bactericidal activity against stationary phase culture of methicillin-sensitive Staphylococcus aureus ATCC 29213 grown for 17 hrs in MHBc at 32 ug/ml after 24 hrs by time kill study; assay type: functional, organism-based
Staphylococcus aureus [12] = assay: Bactericidal activity against high inoculum density exponential growth culture of methicillin-sensitive Staphylococcus aureus ATCC 29213 grown for 2 hrs in MHBc assessed as log reduction in cell density at 100 ug/mL after 1 hr by time kill study; assay type: functional, organism-based
Staphylococcus aureus [13] = assay: Bactericidal activity against erythromycin-induced metabolically arrested exponential growth culture of methicillin-sensitive Staphylococcus aureus ATCC 29213 grown for 2 hrs in MHBc at 10 ug/mL after 24 hrs by time kill study; assay type: functional, organism-based
Staphylococcus aureus [14] = assay: Bactericidal activity against exponential growth culture of methicillin-sensitive Staphylococcus aureus ATCC 29213 grown for 2 hrs in MHBc assessed as logarithmic reduction in CFU at 2 ug/ml within 60 mins by time kill study; assay type: functional
Staphylococcus aureus [15] = assay: Bactericidal activity against stationary phase culture of methicillin-sensitive Staphylococcus aureus ATCC 29213 grown for >17 hrs in MHBc followed by dilution in nutrient depleted MHBc assessed as logarithmic reduction in CFU per millimiter at 10 ug/mL after 24 hrs by time kill study; assay type: functional
Staphylococcus aureus [16] = assay: Bactericidal activity against high inoculum density exponential growth culture of methicillin-sensitive Staphylococcus aureus ATCC 29213 grown for 2 hrs in MHBc at 10 ug/mL after 24 hrs by time kill study; assay type: functional, organism-based
Staphylococcus aureus [17] = assay: Bactericidal activity against high inoculum density stationary phase culture of methicillin-sensitive Staphylococcus aureus ATCC 29213 grown for >17 hrs in MHBc assessed as effect on viability at 100 ug/mL after 4 hrs by time kill study; assay type: functional, organism-based

Molecule | Activity (Staphylococcus aureus [1]) | Activity (Staphylococcus aureus [5]) | Activity (Staphylococcus aureus [8]) | MIC (Staphylococcus aureus [2]; ATCC 29213, 2 h) [µg/mL] | Activity (Staphylococcus aureus [10]) | Activity (Staphylococcus aureus [13]) | Activity (Staphylococcus aureus [16]) | also measured
GENTAMICIN | Active | – | – | – | – | – | – | MIC (Staphylococcus aureus [2]): 0.25 µg/mL
CCCCCCCCCC(=O)N[C@@H](Cc1c[nH]c2ccccc12)C(=O)N[C@H](CC(N)=O)C(=O)N[C@@H](CC(=O)O)C(=O)N[C@@H]1C(=O)NCC(=O)N[C@@H](CCCN)C(=O)N[C@@H](CC(=O)O)C(=O)N[C@H](C)C(=O)N[C@@H](CC(=O)O)C(=O)NCC(=O)N[C@H](CO)C(=O)N[C@@H]([C@H](C)CC(=O)O)C(=O)N[C@@H](CC(=O)c2ccccc2N)C(=O)O[C@@H]1C | – | Active | Active | 0.5 (≈ 0.309 µM) | Active | Active | Active | Activity (Staphylococcus aureus [3]): 3; Activity (Staphylococcus aureus [4]): inactive; Activity (Staphylococcus aureus [6]): Active; Activity (Staphylococcus aureus [7]): Dose-dependent effect; Activity (Staphylococcus aureus [9]): Active; Activity (Staphylococcus aureus [11]): Active; Activity (Staphylococcus aureus [12]): Active; Activity (Staphylococcus aureus [14]): 3; Activity (Staphylococcus aureus [15]): >1
CN[C@H](CC(C)C)C(=O)N[C@H]1C(=O)N[C@@H](CC(N)=O)C(=O)N[C@H]2C(=O)N[C@H]3C(=O)N[C@H](C(=O)N[C@H](C(=O)O)c4cc(O)cc(O)c4-c4cc3ccc4O)[C@H](O)c3ccc(c(Cl)c3)Oc3cc2cc(c3O[C@@H]2O[C@H](CO)[C@@H](O)[C@H](O)[C@H]2O[C@H]2C[C@](C)(N)[C@H](O)[C@H](C)O2)Oc2ccc(cc2Cl)[C@H]1O | inactive | – | – | – | – | – | – | Activity (Staphylococcus aureus [17]): inactive
CCOc1ccc2ccccc2c1C(=O)N[C@@H]1C(=O)N2[C@@H]1SC(C)(C)[C@@H]2C(=O)O [NAFCILLIN] | – | inactive | – | 0.125 (≈ 0.302 µM) | Active | – | – | –
O=C(O)c1cn(C2CC2)c2cc(N3CCNCC3)c(F)cc2c1=O [CIPROFLOXACIN] | – | inactive | inactive | 0.5 (≈ 1.51 µM) | Active | inactive | Active | –
